Experimental findings from patent US11584722B2, “Substituted imidazole salt compounds, preparation method thereof, pharmaceutical composition thereof and application thereof” (Xiamen Vivohealths Technology Co., Ltd., priority 2017, dated 2023) are described below.

For the test, the target named is T1, aldolase A (Homo sapiens, UniProt P04075).
T1 sequence (P04075 1-364): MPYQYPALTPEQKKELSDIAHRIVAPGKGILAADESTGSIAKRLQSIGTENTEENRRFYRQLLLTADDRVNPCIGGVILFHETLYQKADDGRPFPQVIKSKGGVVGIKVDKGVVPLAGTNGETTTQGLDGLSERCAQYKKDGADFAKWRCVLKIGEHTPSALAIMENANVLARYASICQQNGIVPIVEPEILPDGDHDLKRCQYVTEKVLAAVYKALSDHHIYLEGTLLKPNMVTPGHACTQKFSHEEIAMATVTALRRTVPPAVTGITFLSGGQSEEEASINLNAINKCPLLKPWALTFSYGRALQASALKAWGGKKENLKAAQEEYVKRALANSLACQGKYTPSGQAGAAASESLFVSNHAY
Kind of test: Activity assay at protein level: aldolase-catalyzed degradation of fructose-1,6-biphosphate, coupled triose phosphate isomerase/glycerol-3-phosphate dehydrogenase method. The format is biochemical. To be noted: test concentration of compound 100 μM, FBP 500 μM, 37° C., read-out: Inhibition rate (%) of aldolase activity. How it is done: The inhibition on aldolase activity of a compound was evaluated by its inhibition on the rate of aldolase-catalyzed degradation of the substrate fructose-1,6-biphosphate (FBP). Method for conjugation of triose phosphate isomerase/glycerol-3-phosphate dehydrogenase [Racker, E. (1952) J. Biol. Chem. 196, 347-351] was specifically used for biochemical activity assay (Table 3).
The specific method was as follows:
(1) About 250 ng of aldolase A was dissolved in 30 μL of water, added to the bottom of a 96-well plate of quartz, and a compound (dissolved in DMSO, not exceeding 1% of the total reaction volume) was added to the aldolase A solution, followed by shaking and mixing, and incubation for 30 min at room temperature; […]
(2) 70 μL of an enzyme reaction system (its formulation was given below) was added, and immediately put into a microplate reader (SpectraMax M5, Molecular Devices), to carry out reaction at 37° C. At the same time, the absorbance at 340 nm was measured every 30 s, and a total of 61 absorbance values were obtained for each well. The absorbance value linearly changed with time, and the slope was the enzyme activity of aldolase in the well. The specific value was calculated by SoftMax Pro 5.4.1; […]
a. enzyme reaction buffer (50 mM TEA-HCl, pH 7.4, 10 mM EDTA) […]
d. triose phosphate isomerase (about 20 U) e. glycerol-3-phosphate dehydrogenase (about 2 U)
(3) Two parallel experiments were set for each group, with DMSO having a final concentration of 1% as the blank control, and the final concentration of compound being 100 μM.
As usually defined, the inhibition is how much of the control response was suppressed. Turning to `CCCn1cc[n+](Cc2cc(F)ccc2OC)c1C` [IA-10], the inhibition at 100 µM came to 0.06%.

`CCn1cc[n+](Cc2c(Cl)cccc2Cl)c1C` [IA-7]: the inhibition at 100 µM was determined as 88.4%.

As for `CCCCCCCCCCCCCCCCn1c(C)[n+](Cc2c(F)cccc2Cl)c2ccccc21` [IIA-1], the inhibition at 100 µM was found to be 49.9%.

With `Cc1n(C(C)C)cc[n+]1Cc1c(Cl)cccc1Cl` [IA-14], the inhibition at 100 µM was 5.06%.

For the molecule `CCn1cc[n+](Cc2cc(F)ccc2OC)c1C` [IA-6], the inhibition at 100 µM came out at 83.4%.
